In ChEMBL document CHEMBL1151099, “Synthesis of new TNF- Inhibitors and their biological properties” (Bioorg Med Chem Lett, 1996):
One block for each molecule: values may come before it.

Assays:
Format in all cases: functional
Mus musculus [1] = species on record: Mus musculus; assay: In vitro inhibitory activity against TNF-alpha production in mouse macrophages stimulated with LPS
Mus musculus [2] = assay: Protection against LPS-induced death of D-galactosamine-sensitized mice (10 in number) at specified dose of 0 mg/kg on day 7
Mus musculus [3] = assay: Protection against LPS-induced death of D-galactosamine-sensitized mice (10 in number) at specified dose of 100 mg/kg on day 7
Mus musculus [4] = assay: Protection against LPS-induced death of D-galactosamine-sensitized mice (10 in number) at specified dose of 50 mg/kg on day 7

Compound: NCCCN1C2Cc3cc4c(cc3C1Cc1cc3c(cc12)OCO3)OCO4
IC50 (Mus musculus [1]): 52 µM

IC50 (Mus musculus [1]): 22 µM
Compound: COc1cc2c(cc1OC)C1Cc3cc4c(cc3C(C2)N1C(C)=O)OCO4 (stereo not drawn)

Compound: CCOC(=O)CC(=O)N1C2Cc3cc4c(cc3C1Cc1cc3c(cc12)OCO3)OCO4
Survival rate (Mus musculus [2]): 0 number of mice
Survival rate (Mus musculus [3]): 3 number of mice
IC50 (Mus musculus [1]): 26 µM
Survival rate (Mus musculus [4]): 2 number of mice

Compound: c1c2c(cc3c1OCO3)C1Cc3cc4c(cc3C(C2)N1)OCO4
Survival rate (Mus musculus [2]): 0 number of mice
Survival rate (Mus musculus [3]): 10 number of mice
IC50 (Mus musculus [1]): 15 µM
Survival rate (Mus musculus [4]): 7 number of mice

Compound: CCCCN1C2Cc3cc4c(cc3C1Cc1cc3c(cc12)OCO3)OCO4
IC50 (Mus musculus [1]): 58 µM

IC50 (Mus musculus [1]): > 100 µM
Compound: COc1cc2c(cc1OC)C1Cc3cc(OC)c(OC)cc3C(C2)N1

IC50 (Mus musculus [1]): > 100 µM
Compound: CC(=O)Oc1cc2c(cc1OC(C)=O)C1Cc3cc(OC(C)=O)c(OC(C)=O)cc3C(C2)N1C(C)=O

Compound: OCCN1C2Cc3cc4c(cc3C1Cc1cc3c(cc12)OCO3)OCO4
Survival rate (Mus musculus [2]): 0 number of mice
Survival rate (Mus musculus [3]): 9 number of mice
IC50 (Mus musculus [1]): 36 µM
Survival rate (Mus musculus [4]): 7 number of mice

Compound: CCOC(=O)C(=O)N1C2Cc3cc4c(cc3C1Cc1cc3c(cc12)OCO3)OCO4
Survival rate (Mus musculus [2]): 0 number of mice
Survival rate (Mus musculus [3]): 2 number of mice
IC50 (Mus musculus [1]): 15 µM
Survival rate (Mus musculus [4]): 3 number of mice

Compound: NCCN1C2Cc3cc4c(cc3C1Cc1cc3c(cc12)OCO3)OCO4
Survival rate (Mus musculus [2]): 0 number of mice
Survival rate (Mus musculus [3]): 8 number of mice
IC50 (Mus musculus [1]): 14 µM
Survival rate (Mus musculus [4]): 8 number of mice

Compound: CCOC(=O)N1C2Cc3cc4c(cc3C1Cc1cc3c(cc12)OCO3)OCO4
Survival rate (Mus musculus [2]): 0 number of mice
Survival rate (Mus musculus [3]): 3 number of mice
IC50 (Mus musculus [1]): 31 µM
Survival rate (Mus musculus [4]): 3 number of mice

Compound: CC(=O)CCCCn1c(=O)c2c(ncn2C)n(C)c1=O [PENTOXIFYLLINE]
Survival rate (Mus musculus [2]): 0 number of mice
Survival rate (Mus musculus [3]): 4 number of mice
IC50 (Mus musculus [1]): 68 µM

Compound: CCCC(=O)N1C2Cc3cc4c(cc3C1Cc1cc3c(cc12)OCO3)OCO4
Survival rate (Mus musculus [2]): 0 number of mice
Survival rate (Mus musculus [3]): 5 number of mice
IC50 (Mus musculus [1]): 11 µM
Survival rate (Mus musculus [4]): 4 number of mice

IC50 (Mus musculus [1]): 100 µM
Compound: COc1cc2c(cc1OC)C1Cc3cc4c(cc3C(C2)N1)OCO4 (stereo not drawn)

Compound: CC(=O)N1C2Cc3cc4c(cc3C1Cc1cc3c(cc12)OCCO3)OCCO4
Survival rate (Mus musculus [2]): 0 number of mice
Survival rate (Mus musculus [3]): 7 number of mice
IC50 (Mus musculus [1]): 34 µM
Survival rate (Mus musculus [4]): 4 number of mice

Compound: CCCN1C2Cc3cc4c(cc3C1Cc1cc3c(cc12)OCO3)OCO4
IC50 (Mus musculus [1]): 56 µM

Compound: CNC(=O)N1C2Cc3cc4c(cc3C1Cc1cc3c(cc12)OCO3)OCO4
Survival rate (Mus musculus [2]): 0 number of mice
Survival rate (Mus musculus [3]): 6 number of mice
IC50 (Mus musculus [1]): 15 µM
Survival rate (Mus musculus [4]): 6 number of mice

Compound: O=C(c1ccccc1)N1C2Cc3cc4c(cc3C1Cc1cc3c(cc12)OCO3)OCO4
IC50 (Mus musculus [1]): 38 µM

Compound: O=C(CO)N1C2Cc3cc4c(cc3C1Cc1cc3c(cc12)OCO3)OCO4
Survival rate (Mus musculus [2]): 0 number of mice
Survival rate (Mus musculus [3]): 9 number of mice
IC50 (Mus musculus [1]): 20 µM
Survival rate (Mus musculus [4]): 6 number of mice

Compound: O=CN1C2Cc3cc4c(cc3C1Cc1cc3c(cc12)OCO3)OCO4
Survival rate (Mus musculus [2]): 0 number of mice
Survival rate (Mus musculus [3]): 7 number of mice
IC50 (Mus musculus [1]): 22 µM
Survival rate (Mus musculus [4]): 7 number of mice

Compound: CC(=O)N1C2Cc3cc4c(cc3C1Cc1cc3c(cc12)OCO3)OCO4
Survival rate (Mus musculus [2]): 0 number of mice
Survival rate (Mus musculus [3]): 9 number of mice
IC50 (Mus musculus [1]): 13 µM
Survival rate (Mus musculus [4]): 7 number of mice

Compound: O=C(CCO)N1C2Cc3cc4c(cc3C1Cc1cc3c(cc12)OCO3)OCO4
Survival rate (Mus musculus [2]): 0 number of mice
Survival rate (Mus musculus [3]): 6 number of mice
IC50 (Mus musculus [1]): 27 µM
Survival rate (Mus musculus [4]): 5 number of mice

Compound: CCCCCC(=O)N1C2Cc3cc4c(cc3C1Cc1cc3c(cc12)OCO3)OCO4
IC50 (Mus musculus [1]): > 100 µM

IC50 (Mus musculus [1]): 44 µM
Compound: Oc1cc2c(cc1O)C1Cc3cc4c(cc3C(C2)N1)OCO4 (stereo not drawn)

IC50 (Mus musculus [1]): 38 µM
Compound: COc1cc2c(cc1OC)C1Cc3cc(OC)c(OC)cc3C(C2)N1C(C)=O

IC50 (Mus musculus [1]): > 100 µM
Compound: CC(=O)N1C2Cc3cc(O)c(O)cc3C1Cc1cc(O)c(O)cc12

Compound: COCC(=O)N1C2Cc3cc4c(cc3C1Cc1cc3c(cc12)OCO3)OCO4
IC50 (Mus musculus [1]): 17 µM

IC50 (Mus musculus [1]): 46 µM
Compound: CC(=O)N1C2Cc3cc4c(cc3C1Cc1cc(O)c(O)cc12)OCO4 (stereo not drawn)

Compound: c1c2c(cc3c1OCCO3)C1Cc3cc4c(cc3C(C2)N1)OCCO4
Survival rate (Mus musculus [2]): 0 number of mice
Survival rate (Mus musculus [3]): 4 number of mice
IC50 (Mus musculus [1]): 22 µM
Survival rate (Mus musculus [4]): 1 number of mice

Compound: CN1C2Cc3cc4c(cc3C1Cc1cc3c(cc12)OCO3)OCO4
IC50 (Mus musculus [1]): 19 µM

Compound: CCC(=O)N1C2Cc3cc4c(cc3C1Cc1cc3c(cc12)OCO3)OCO4
Survival rate (Mus musculus [2]): 0 number of mice
Survival rate (Mus musculus [3]): 8 number of mice
IC50 (Mus musculus [1]): 11 µM
Survival rate (Mus musculus [4]): 8 number of mice

Compound: CCN1C2Cc3cc4c(cc3C1Cc1cc3c(cc12)OCO3)OCO4
Survival rate (Mus musculus [2]): 0 number of mice
Survival rate (Mus musculus [3]): 10 number of mice
IC50 (Mus musculus [1]): 27 µM
Survival rate (Mus musculus [4]): 9 number of mice

IC50 (Mus musculus [1]): > 100 µM
Compound: Oc1cc2c(cc1O)C1Cc3cc(O)c(O)cc3C(C2)N1
